In patent US20120172351A1, “NOVEL FUSED CYCLIC COMPOUND AND USE THEREOF” (priority 2009, published 2012):
Structures can show the parent of a compound that is named as a salt. Marks after values point to notes of the source that are not given here.

Legend:
human derived GPR40 = target: T1, human derived GPR40 (Homo sapiens, UniProt O14842); test: Agonist action on human derived GPR40: change of intracellular calcium concentration in CHO cells (FLIPRtetra); assay type: cell-based; settings: agonist activity of compound at 1 μM, relative to 10 μM γ linolenic acid as 100%, wave peak height; CHO cells stably expressing human GPR40
T1 construct: expressed in transfected cells
T1 sequence (O14842 whole entry): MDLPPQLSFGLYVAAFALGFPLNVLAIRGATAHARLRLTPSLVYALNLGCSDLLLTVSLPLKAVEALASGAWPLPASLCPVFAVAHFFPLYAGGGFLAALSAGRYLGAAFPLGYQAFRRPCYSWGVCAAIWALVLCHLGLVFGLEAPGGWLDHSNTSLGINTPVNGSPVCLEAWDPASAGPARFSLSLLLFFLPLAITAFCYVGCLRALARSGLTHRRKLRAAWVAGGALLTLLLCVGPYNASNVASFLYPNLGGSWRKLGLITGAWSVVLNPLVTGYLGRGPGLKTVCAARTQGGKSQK
Method: The CHO cell lines that stably expressed human derived GPR40 were used for the determination of the agonist activity. Unless particularly specified, the CHO cell lines were cultured in an α-MEM medium (Wako Pure Chemical Industries, Ltd.) containing 10% dialyzed fetal bovine serum (TRA Thermo Electron).
The cells cultured almost to confluent on the day before assay were rinsed with PBS (Invitrogen), detached with 0.5 mM EDTA (Wako Pure Chemical Industries, Ltd.), and recovered by centrifugation. The obtained cells were counted, diluted to 2×10^5 cells per 1 mL medium, dispensed by 40 μL per well to a 384 well black clear bottomplate (PE Biosystems), and cultured overnight in a CO2 incubator. Various test compounds were added to CHO cells prepared as mentioned above, and change of intracellular calcium concentration was measured using FLIPRtetra (Molecular Device). For the measurement by this device, a Calcium 4 assay kit (Molecular Devices: R8142) was used.
First, fatty acid free BSA at the final concentration of 0.1% was added to the buffer attached to the kit to prepare an assay buffer. Using the assay buffer, a loading solution with Fluo4 was prepared such that the final concentration of fatty acid free BSA was 0.1% and the final concentration of probenecid was 625 μM. On the other hand, a test compound was diluted with the assay buffer to a given concentration, and dispensed to the polypropylene 384-well plate (sample plate). The medium was removed from the cell culture plate, and the loading solution with Fluo4 was dispensed by 25 μL. After culture in a CO2 incubator at 37° C. for 40 min, a sample plate and a cell plate were simultaneously set on the FLIPRtetra, various test compounds were added by 25 μL according to the program of the device, and change of intracellular calcium concentration was measured. The agonist activity of each compound at 1 μM was calculated as a relative activity value to the activity of 10 μM γ linolenic acid as 100% from the wave peak height.

Wistar fatty rat = test: Oral glucose tolerance test in Wistar fatty rat; assay type: in vivo; settings: female Wistar fatty rats, 1 mg/kg oral, glucose 1 g/kg 1 hr after dosing; glucose AUC 0-120 min vs control group
Method: The blood glucose increase suppressive action of the compound of the present invention was evaluated by an oral glucose tolerance test using Wistar fatty rat (TAKEDA RABICS).
The animal used was female Wistar fatty rat (prepared by TAKEDA RABICS, 18- to 22-week-old). The rats were bred under free access to a feed (CE-2, sold by CLEA Japan, Inc.).
Female Wistar fatty rats (18- to 22-week-old) were fasted for 19-21 hr, and the body weight was measured. Heparin (Ajinomoto Co., Inc.) was added as an anticoagulant, and aprotinin (SIGMA) was added as a protease inhibitor, and the blood was collected from the tail vein. 0.5% Methylcellulose (control group) or a 0.5% methylcellulose suspension of a test compound (1 mg/kg body weight) was orally administered to the rats of each group (6 per group) at 5 ml/kg and, 1 hr after the administration, a glucose solution (Otsuka Pharmaceutical Factory, Inc.) was orally administered at 1 g/5 ml/kg. […] The plasma glucose of the obtained plasma were measured by automatic analyzer 7080 (HITACHI). The glucose AUC was calculated from the obtained values by the formulas described in Experimental Example 2. Moreover, blood glucose lowering rate was calculated from the obtained AUC by the formulas described in Experimental Example 2. Statistical significance versus control was analyzed by Student's t-test.

N-STZ-1.5 rat = test: Oral glucose tolerance test in N-STZ-1.5 rat (type 2 diabetes model); assay type: in vivo; settings: male N-STZ-1.5 rats, 1 mg/kg oral, glucose 1.5 g/kg 1 hr after dosing; for Blood glucose lowering rate: glucose AUC 0-120 min vs control group; for Insulin increasing rate: insulin AUC 0-120 min vs control group
Method: The blood glucose increase suppressive action and insulin secretagogue action of the compound of the present invention were evaluated by an oral glucose tolerance test using N-STZ-1.5 rat (TAKEDA RABICS).
Streptozotocin (120 mg/kg) was subcutaneously administered to male Wistar Kyoto rats (1-2 days old) to prepare N-STZ-1.5 rat which is a type 2 diabetes model. The rats were bred under free access to a feed (CE-2, sold by CLEA Japan, Inc.).
Male N-STZ-1.5 rats (21-week-old) were fasted for 19-21 hr, and the body weight was measured. Heparin (Ajinomoto Co., Inc.) was added as an anticoagulant, and aprotinin (SIGMA) was added as a protease inhibitor, and the blood was collected from the tail vein. 0.5% Methylcellulose (control group) or a 0.5% methylcellulose suspension of a test compound (1 mg/kg body weight) was orally administered to the rats of each group (6 per group) at 5 ml/kg and, 1 hr after the administration, a glucose solution (Otsuka Pharmaceutical Factory, Inc.) was orally administered at 1.5 g/5 ml/kg. The blood was collected from the tail vein immediately before glucose loading (0 min value) and 10, 30, 60, 120 min thereafter. The blood was centrifuged and the plasma was separated. The plasma glucose and insulin concentration of the obtained plasma were measured. The plasma glucose was measured by automatic analyzer 7080 (HITACHI), and the insulin concentration was measured by RAT INSULIN RIA KIT (LINCO Research). The glucose AUC and insulin AUC were calculated from the obtained values by the following formulas. Moreover, blood glucose lowering rate and insulin increasing rate were calculated from the obtained AUC by the following formulas. Statistical significance versus control was analyzed by Student's t-test or Aspin-Welch test.
{(0 min plasma glucose)+(10 min plasma glucose)}×10/2+{(10 min plasma glucose)+(30 min plasma glucose)}×20/2+{(30 min plasma glucose)+(60 min plasma glucose)}×30/2+{(60 min plasma glucose)+(120 min plasma glucose)}×60/2
{(0 min plasma insulin)+(10 min plasma insulin)}×10/2+{(10 min plasma insulin)+(30 min plasma insulin)}×20/2+{(30 min plasma insulin)+(60 min plasma insulin)}×30/2+{(60 min plasma insulin)+(120 min plasma insulin)}×60/2
blood glucose lowering rate: [(test compound administration group glucose AUC/control group glucose AUC)−1]×100
insulin increasing rate: [(test compound administration group insulin AUC/control group […] AUC)-1]×100

Compound | activity (%) (human derived GPR40) | Blood glucose lowering rate (Wistar fatty rat) [%**] | melting point [°C] | Blood glucose lowering rate (N-STZ-1.5 rat) | Insulin increasing rate (N-STZ-1.5 rat)
Cc1cc(OC2CCS(=O)(=O)CC2)cc(C)c1-c1cccc2c1OC[C@H]2Nc1ccc2c(c1)OC[C@H]2CC(=O)O [Example 9, [(3S)-6-{[(3S)-7-{4-[(1,1-dioxidotetrahydro-2H-thiopyran-4-yl)oxy]-2,6-dimethylphenyl}-2,3-dihydro-1-benzofuran-3-yl]amino}-2,3-dihydro-1-benzofuran-3-yl]acetic acid] | 128 | −15.8 | 176 | – | –
Cc1nc(N2CCOCC2)nc(C)c1-c1cccc2c1OC[C@H]2Nc1ccc2c(c1)OC[C@H]2CC(=O)O [Example 77, [(3S)-6-({(3S)-7-[4,6-dimethyl-2-(morpholin-4-yl)pyrimidin-5-yl]-2,3-dihydro-1-benzofuran-3-yl}amino)-2,3-dihydro-1-benzofuran-3-yl]acetic acid] | – | – | 168 | – | –
Cc1cc(OC[C@@H]2CCC(=O)N2)cc(C)c1-c1cccc2c1OC[C@H]2Nc1ccc2c(c1)OC[C@H]2CC(=O)O [Example 8, [(3S)-6-{[(3S)-7-(2,6-dimethyl-4-{[(2S)-5-oxopyrrolidin-2-yl]methoxy}phenyl)-2,3-dihydro-1-benzofuran-3-yl]amino}-2,3-dihydro-1-benzofuran-3-yl]acetic acid] | 131 | – | 161 | – | –
Cc1nc(N2CCOCC2)nc(C)c1-c1cccc(CNc2ccc3c(c2)OC[C@H]3CC(=O)O)c1C (as salt: salt) [Example 242, 1,3-dihydroxy-2-(hydroxymethyl)propan-2-aminium [(3S)-6-({3[4,6-dimethyl-2-(morpholin-4-yl)pyrimidin-5-yl]-2-methylbenzyl}amino)-2,3-dihydro-1-benzofuran-3-yl]acetate] | – | – | 154 | – | –
CCOc1nc2ccc(F)c(F)c2n1-c1cccc2c1OC[C@H]2Nc1ccc2c(c1)OC[C@H]2CC(=O)[O-].[Na+] [Example 33, sodium [(3S)-6-{[(3S)-7-(2-ethoxy-6,7-difluoro-1H-benzimidazol-1-yl)-2,3-dihydro-1-benzofuran-3-yl]amino}-2,3-dihydro-1-benzofuran-3-yl]acetate] | 109 | −19.5 | – | – | –
Cc1nc(N2CCOCC2)nc(C)c1-c1cccc2c1OC[C@H]2Nc1ccc2c(c1)OC[C@H]2CC(=O)O.O [Example 77-1, Hydrate of [(3S)-6-({(3S)-7-[4,6-dimethyl-2-(morpholin-4-yl)pyrimidin-5-yl]-2,3-dihydro-1-benzofuran-3-yl}amino)-2,3-dihydro-1-benzofuran-3-yl]acetic acid] | – | – | – | −13.6%^$ | +40.2%^$
Cc1cc(OCCCS(C)(=O)=O)cc(C)c1-c1cccc2c1OC[C@H]2Nc1ccc2c(c1)OC[C@H]2CC(=O)O [Example 7, [(3S)-6-{[(3S)-7-{2,6-dimethyl-4-[3-(methylsulfonyl)propoxy]phenyl}-2,3-dihydro-1-benzofuran-3-yl]amino}-2,3-dihydro-1-benzofuran-3-yl]acetic acid] | 124 | – | 169 | −20.5%** | +39.5%^$
Cc1nc(N2CCCC2)nc(C)c1-c1cccc2c1OC[C@H]2Nc1ccc2c(c1)OC[C@H]2CC(=O)O [Example 79, [(3S)-6-({(3S)-7-[4,6-dimethyl-2-(pyrrolidin-1-yl)pyrimidin-5-yl]-2,3-dihydro-1-benzofuran-3-yl}amino)-2,3-dihydro-1-benzofuran-3-yl]acetic acid] | 126 | – | 169 | – | –
CCCN(c1cc(C)ccn1)c1cccc2c1OC[C@H]2Nc1ccc2c(c1)OC[C@H]2CC(=O)O [Example 82, [(3S)-6-({(3S)-7-[(4-methylpyridin-2-yl)(propyl)amino]-2,3-dihydro-1-benzofuran-3-yl}amino)-2,3-dihydro-1-benzofuran-3-yl]acetic acid] | 129 | – | 146 | – | –
